Experiment: Test Program #1: solubility of dodecanedioic acid powder in bitumen wafer
Assay type: physicochemical
Conditions: ambient temperature, 3 days
Text: The solubility of dodecanedioic acid powder in bitumen was proven in laboratory experiments in which a 30-gram bitumen core sample was compressed at 1,000 pounds per square inch using a compactor, to make bitumen wafers having a diameter of 2.75 cm and a depth (thickness) of 1.8 cm. The bitumen wafer was rolled over carefully in a container with a sufficient quantity of dodecanedioic acid powder. The surface of bitumen wafer was covered with a thin layer of the dodecanedioic acid powder, and the color of the bitumen turned from black to white.

O=C(O)CCCCCCCCCCC(=O)O [dodecanedioic acid]
solubility of powder in bitumen (visual inspection of powder-covered wafer): all of the white dodecanedioic acid powder had disappeared

From patent US20140148368A1, “DRILLING FLUIDS AND DRILLING FLUID ADDITIVES FOR TREATMENT OF BITUMEN IN WELLBORE CUTTINGS” (Marquis Alliance Energy Group Inc., priority 2012, published 2014)
